Source: US7678787B2, “Pyrrolobenzodiazepine pyridine carboxamides and derivatives as follicle-stimulating hormone receptor antagonists” (Wyeth, priority 2005, dated 2010)
pIC50: −log10 of the molar value.

Key:
[1] = target: T1, hFSH-R (Homo sapiens, UniProt P23945); assay: cAMP accumulation (RIA) in CHO-3D2 cells (hFSH-R), hFSH-induced; type: cell-based; details: inhibition of cAMP accumulation induced by hFSH at EC20, CHO-3D2 cells
T1 construct: expressed in transfected cells; host or cells: CHO-3D2 cells (CHO-K1 parental line)
T1 sequence (P23945 18-695): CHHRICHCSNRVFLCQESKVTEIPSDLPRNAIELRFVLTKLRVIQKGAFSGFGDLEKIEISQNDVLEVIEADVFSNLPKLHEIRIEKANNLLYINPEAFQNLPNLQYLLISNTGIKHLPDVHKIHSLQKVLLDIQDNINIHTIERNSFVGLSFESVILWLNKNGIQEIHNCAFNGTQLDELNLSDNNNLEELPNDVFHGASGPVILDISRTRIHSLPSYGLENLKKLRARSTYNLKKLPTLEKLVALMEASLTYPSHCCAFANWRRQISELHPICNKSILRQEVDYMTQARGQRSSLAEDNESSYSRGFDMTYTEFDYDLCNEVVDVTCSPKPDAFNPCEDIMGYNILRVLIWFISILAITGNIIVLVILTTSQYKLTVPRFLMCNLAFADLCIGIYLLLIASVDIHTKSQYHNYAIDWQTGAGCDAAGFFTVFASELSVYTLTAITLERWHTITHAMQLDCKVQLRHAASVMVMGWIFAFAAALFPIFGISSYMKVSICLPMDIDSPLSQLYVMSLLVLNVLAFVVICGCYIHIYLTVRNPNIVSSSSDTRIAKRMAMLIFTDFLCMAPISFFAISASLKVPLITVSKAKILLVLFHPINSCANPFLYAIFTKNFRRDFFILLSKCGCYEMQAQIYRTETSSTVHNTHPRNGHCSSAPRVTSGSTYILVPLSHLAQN
Procedure: IN VITRO BIO-ASSAY OF AGONISTS AND ANTAGONISTS TO THE FSH RECEPTOR. SELECTIVITY AND DEPENDENCY OF AGONISTS AND ANTAGONISTS TO THE FSH RECEPTOR
Compound Vehicle: Stock compounds were solubilized in 100% DMSO (Sigma-Aldrich Chemical Co., St. Louis, Mo.) at a concentration of 30 mM. The compounds subsequently were diluted in sterile assay medium consisting of Opti-MEM® I (Invitrogen/Life Technologies, Carlsbad, Calif.) with 0.1% (w/v) BSA (Sigma-Aldrich) prior to use in the bio-assay. The final concentration of DMSO in the assay was 0.1%.
Plated cells are then incubated at 37° C. in a humidified 5% CO2/95% air atmosphere.
Assay: On the day of the assay, cells were washed three times with 100 μl/well of assay medium consisting of Opti-MEM® I (Invitrogen/Life Technologies) with 0.1% (w/v) BSA (Sigma-Aldrich). Medium was removed and 100 μl of assay medium was added to each well. Plates were incubated for an additional 30 minutes at 37° C. […] Reactions were terminated by the addition of 50 μl of 0.2N hydrochloric acid to each well and cAMP-accumulation was measured by radioimmunoassay (RIA) using a commercially available kit (Amersham Biosciences, Piscataway, N.J.).
All test compounds were evaluated in a dose-response paradigm ranging from 0.01 to 30 μM. Controls and test compounds were evaluated in quadruplicate in a 96-well format.
Along with the test compounds, FSH was run also as a postive control in the agonist mode using concentrations ranging from 0.1-1000 ng/ml.
Data were analyzed by one-way analysis of variance and significant differences between treatments and control determined by Least Significant Difference test.
Test compounds were compared to the effect of purified human FSH.

[2] = target: T2, human FSH receptor (Homo sapiens, UniProt P23945); assay: FSH receptor-dependent CRE-luciferase reporter gene assay (CHO FSH-R 6CRE-Luc cells); type: cell-based; details: dose-response format in presence of EC50 of purified human FSH; * n=3, ** n=2 averages
T2 construct: host or cells: CHO-K1 (CHO FSH-R 6CRE-Luc, 1D7 cells)
T2 sequence (P23945 18-695): T1 sequence (P23945 18-695)
Summary of the method: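 CHO-K1 cells stably expressing the recombinant human FSH receptor and a luciferase reporter controlled by 6 cAMP response elements were seeded at 50,000 cells/100 μl/well in 96-well white opaque plates. Antagonists were tested in dose-response against the EC50 of purified human FSH for 4 hours at 37° C, and luciferase chemiluminescence was read with a LucScreen kit.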

[3] = target: T2, human FSH receptor; assay: as above; type: cell-based; details: 2-dose format; test concentration in parentheses = 30 μM; percent inhibition of response to EC50 of FSH; read-out: CRE % inhibition

pIC50 [1]	melting point	pIC50 [2]	inhibition at 30 µM [3] [%]	Compound
6.05	162 to 163 °C	5.98		O=Cc1ccccc1-c1ccc(C(=O)N2Cc3ccc(C(=O)NCc4cccnc4)n3Cc3ccccc32)cc1 [Example 56]
6.15	108 to 112 °C	5.67		Cc1cc(C(=O)N2Cc3ccc(C(=O)NCc4cccnc4)n3Cc3ccccc32)ccc1-c1ccccc1 [Example 57]
6.70	111 to 115 °C	6.40		CCC(O)c1ccccc1-c1ccc(C(=O)N2Cc3ccc(C(=O)NCc4cccnc4)n3Cc3ccccc32)cc1 (centres unmarked) [Example 58]
7.22	119 to 121 °C	7.00		O=C(NCc1cccnc1)c1ccc2n1Cc1ccccc1N(C(=O)c1ccc(-c3ccccc3CO)cc1)C2 [Example 59]
7.30	156 to 157 °C	7.00		COCc1ccccc1-c1ccc(C(=O)N2Cc3ccc(C(=O)NCc4cccnc4)n3Cc3ccccc32)cc1 [Example 61]
6.26	165 to 167 °C	5.97		O=C(NCc1cccnc1)c1ccc2n1Cc1ccccc1N(C(=O)c1ccc(-c3ccccc3/C=N/O)cc1)C2 [Example 62]
6.42	179.5 to 180.5 °C	5.93		COC(=O)c1ccccc1-c1ccc(C(=O)N2Cc3ccc(C(=O)NCc4cccnc4)n3Cc3ccccc32)cc1 [Example 63]
5.62	176 to 177 °C	5.25		COc1cccc(-c2ccc(C(=O)N3Cc4ccc(C(=O)NCc5cccnc5)n4Cc4ccccc43)cc2C)c1 [Example 70]
5.51	176 to 177 °C	4.98		Cc1cc(C(=O)N2Cc3ccc(C(=O)NCc4cccnc4)n3Cc3ccccc32)ccc1I [Example 74]
4.68	211 to 213 °C (dec.)	< 4.52		O=C(c1ccccc1)c1ccc(C(=O)N2Cc3ccc(C(=O)NCc4cccnc4)n3Cc3ccccc32)cc1 [Example 75]
6.70	234 to 236 °C	5.61		O=C(NCc1cccnc1)c1ccc2n1Cc1ccccc1N(C(=O)c1ccc(-c3ncccn3)cc1)C2 [Example 105]
6.70	159 to 161 °C	5.51		O=C(NCc1cccnc1)c1ccc2n1Cc1ccccc1N(C(=O)c1ccc(-c3ccccn3)cc1)C2 [Example 107]
5.74	120 to 125 °C	5.02		O=C(NCc1cccnc1)c1ccc2n1Cc1ccccc1N(C(=O)c1ccc(-c3cccnc3)cc1)C2 [Example 108]
6.52	150 to 151 °C	5.53		Cc1cccnc1-c1ccc(C(=O)N2Cc3ccc(C(=O)NCc4cccnc4)n3Cc3ccccc32)cc1 [Example 109]
5.89	107 °C	5.10		O=C(NCc1cccnc1)c1ccc2n1Cc1ccccc1N(C(=O)c1ccc(-n3cccn3)cc1)C2 [Example 112]
6.10	196 to 197 °C (dec.)	5.05		O=C(NCc1cccnc1)c1ccc2n1Cc1ccccc1N(C(=O)c1ccc(N3CCCCC3)cc1)C2 [Example 113]

Further lines, the compound ahead of its results:

Compound	pIC50 [1]	melting point	pIC50 [2]	inhibition at 30 µM [3] [%]
COc1ccccc1-c1ccc(C(=O)N2Cc3ccc(C(=O)NCc4cccnc4)n3Cc3ccccc32)cc1 [Example 8]	6.30	123 to 127 °C	6.27	
Cc1cc(C(=O)N2Cc3ccc(C(=O)NCc4cccnc4)n3Cc3ccccc32)ccc1-c1c(C)cccc1C [Example 10]				25
CS(=O)(=O)c1ccccc1-c1ccc(C(=O)N2Cc3ccc(C(=O)NCc4cccnc4)n3Cc3ccccc32)cc1 [Example 15]	6.43	153 to 156 °C	5.96	
N#CCc1ccccc1-c1ccc(C(=O)N2Cc3ccc(C(=O)NCc4cccnc4)n3Cc3ccccc32)cc1 [Example 17]	6.89	105 to 108 °C	6.54	
NC(Cc1ccccc1-c1ccc(C(=O)N2Cc3ccc(C(=O)NCc4cccnc4)n3Cc3ccccc32)cc1)=NO [Example 18]	7.15	131 to 134 °C	7.39	
Cc1cc(C(=O)N2Cc3ccc(C(=O)NCc4cccnc4)n3Cc3ccccc32)ccc1-c1cccc(Cl)c1 [Example 23]				36
Cc1ccccc1-c1ccc(C(=O)N2Cc3ccc(C(=O)NCc4cccnc4)n3Cc3ccccc32)cc1 [Example 28]	6.10	176 to 177 °C	5.70	
CC(=O)c1ccccc1-c1ccc(C(=O)N2Cc3ccc(C(=O)NCc4cccnc4)n3Cc3ccccc32)cc1C [Example 29]	6.40	171 to 172 °C	6.05	
CNCc1ccccc1-c1ccc(C(=O)N2Cc3ccc(C(=O)NCc4cccnc4)n3Cc3ccccc32)cc1 [Example 42]	5.70	149 to 150 °C	5.15	
O=C(NCc1cccnc1)c1ccc2n1Cc1ccccc1N(C(=O)c1ccc(-c3ccccc3CN3CCOCC3)cc1)C2 [Example 43]	6.85	191 to 194 °C	6.59	
O=C(NCc1cccnc1)c1ccc2n1Cc1ccccc1N(C(=O)c1ccc(-c3ccccc3CN3CCCCC3)cc1)C2 [Example 44]	5.77	199 to 202 °C	5.53	
CN(C)Cc1ccccc1-c1ccc(C(=O)N2Cc3ccc(C(=O)NCc4cccnc4)n3Cc3ccccc32)cc1 [Example 45]	6.11	95 to 104 °C	5.45	
NCc1ccccc1-c1ccc(C(=O)N2Cc3ccc(C(=O)NCc4cccnc4)n3Cc3ccccc32)cc1 [Example 46]	6.43	115 to 120 °C	5.66	
COc1ccccc1-c1ccc(C(=O)N2Cc3ccc(C(=O)NCc4cccnc4)n3Cc3ccccc32)cc1C [Example 47]	6.70	119 to 124 °C	6.19	
CCOc1ccccc1-c1ccc(C(=O)N2Cc3ccc(C(=O)NCc4cccnc4)n3Cc3ccccc32)cc1C [Example 48]	6.52	139 to 143 °C	5.80	
COCc1ccccc1-c1ccc(C(=O)N2Cc3ccc(C(=O)NCc4cccnc4)n3Cc3ccccc32)cc1C [Example 49]	7.00	163 to 164 °C	6.22	
CC(=O)c1ccccc1-c1ccc(C(=O)N2Cc3ccc(C(=O)NCc4cccnc4)n3Cc3ccccc32)cc1 [Example 51]	7.00	149 to 150 °C	6.54	
CC(O)c1ccccc1-c1ccc(C(=O)N2Cc3ccc(C(=O)NCc4ccc[n+]([O-])c4)n3Cc3ccccc32)cc1 (centres unmarked) [Example 55, 10-{[2′-(1-HYDROXYETHYL)-1,1′-BIPHENYL-4-YL]CARBONYL}-N-[(1-OXIDOPYRIDIN-3-YL)METHYL]-10,11-DIHYDRO-5H-PYRROLO[2,1-C][1,4]BENZODIAZEPINE-3-CARBOXAMIDE]	6.21	213 to 215 °C	5.98	
